Laboratory results: US6369052B1, “Combination of huperzine and nicotinic compounds as a neuroprotective agent” (Georgetown University, priority 2000, dated 2002)
Like-named read-outs stand apart in the source and are kept apart here.

Legend:
Assay type in all cases: cell-based
[1] = system: neuronal-glial cultures from mouse cerebral cortical cultures; test: NMDA-induced cell toxicity in mixed cortical cultures, low drug concentrations, LDH release (Example 3)
[2] = system: cultures of granule neurons prepared from mouse cerebellum; test: β-amyloid-peptide-induced cell toxicity in cerebellar granule neurons, LDH release (Example 2)
Description: Toxicity was induced by a 48 hour treatment with 25 μM β-amyloid peptide in the absence or presence of the indicated drugs.
In a first experiment, four samples each containing cultures of granule neurons prepared from mouse cerebellum and a different concentration of (−)-nicotine (ranging from 0 to 100 μM) were treated for 48 hours with 25 μM β-amyloid peptide (“AP”) (commercially available, for example, from Bachem, Inc., Torrance, Calif.) to induce cell death, according to the procedure described in Copani et al., 1995 Mol Pharmacol 47:890-7 (hereinafter “Copani et al.”).
Then cell death was assessed by measuring the amount of LDH released into the medium according to the procedure described in Bruno et al. The data are summarized in FIG. 2, Graph A, as lines connecting the values (represented by unfilled squares) of % of β-amyloid-peptide-induced toxicity (i.e., % cell death) at the corresponding concentration of nicotine in μM.
In a second experiment, four samples each containing cultures of granule neurons prepared from mouse cerebellum and a different concentration of (−)-huperzine A (ranging from 0 to 10 μM), were treated for 48 hours with 25 μM AP, (25-35 fragment) according to the above-described procedure. Then cell death was assessed as described above. The data are summarized in FIG. 2, Graph B, as lines connecting the values (represented by unfilled circles) of % of β-amyloid-peptide-induced toxicity at a particular concentration of (−)-huperzine A in μM.
In a third experiment, 4 samples each containing cultures of granule neurons prepared from mouse cerebellum, a different concentrations of (−)-huperzine A (ranging from 0 to 10 μM), and a fixed concentration of 10 μM of (−)-nicotine were treated for 48 hours with 25 μM AP using the procedure described above. Then cell death was assessed as above. The data are summarized in FIG. 2, Graph B, as lines connecting the values (represented by black-filled circles) of % of β-amyloid-peptide-induced toxicity at a particular μM-concentration of (−)-huperzine A.

[3] = system: mixed cortical cultures from mouse brain; test: NMDA-induced cell toxicity in mixed cortical (neuronal-glial) cultures, LDH release (Example 1)
Description: Graph B represents the dose-dependent effect of (−)-huperzine A alone (unfilled circles) and in the presence (filled circles) of 10 μM (−)-nicotine. Toxicity was induced by a 10 minute treatment with 75 μM NMDA in the absence or presence of the indicated drugs.
In a first experiment, four samples each containing neuronal-glial cultures from mouse cerebral cortical cultures and a different concentration of (−)-nicotine (ranging from 0 to 100 μM) were treated for 10 minutes with 75 μM of NMDA (commercially available, for example, from Sigma Chemical Co., St. Louis, Mo.) to induce cell death. The cultures were prepared from 15-day-old fetal Swiss-Webster mice, as described in Bruno et al., 1998 Neuroscience 85:751-7 (hereinafter “Bruno et al.”), incorporated herein by reference. Neuronal cells were plated in 96-well plates on a layer of confluent glial cells at a density of 200,000 cells/well in EMEM medium containing 5% fetal bovine serum and 5% horse serum. Then the NMDA was removed replacing the medium with fresh serum-free culture medium and cell death was assessed for each sample by measuring the amount of lactate dehydrogenase (“LDH”) released into the medium according to the procedure described in Bruno et al. The data are summarized in FIG. 1, Graph A, as lines connecting the values (represented by unfilled squares) of % of NMDA toxicity (i.e., % cell death) at the corresponding concentration of (−)-nicotine in μM.
In a second experiment, six samples each containing neuronal-glial cultures from mouse brain and a different concentration of (−)-huperzine A (ranging from 0 to 10 μM) were treated with 75 μM of NMDA, using the above-described procedure. Then cell death was assessed for each sample using the procedure described above. The data are summarized in FIG. 1, Graph B, as lines connecting the values (represented by unfilled circles) of % of NMDA toxicity at the corresponding concentration of (−)-huperzine A in μM.
In a third experiment, six samples each containing neuronal-glial cultures from mouse brain, a different concentration of (−)-huperzine A (ranging from 0 to 10 μM), and a fixed concentration of 10 μM of (−)-nicotine were treated with 75 μM NMDA, using the procedure described above. Then cell death was assessed for each sample as above. The data are summarized in FIG. 1, Graph B, as lines connecting the values (represented by black-filled circles) of % of NMDA toxicity at the corresponding μM-concentration of(−)-huperzine A.

[4] = drug alone, 25 μM β-amyloid peptide for 48 hours, FIG. 2
[5] = drug alone, nicotine 0-100 μM, huperzine A 0-10 μM
[6] = drug alone, 75 μM NMDA for 10 minutes, FIG. 1

Row | Compound | neuroprotective effect [1] | cell death (% of β-amyloid-peptide-induced toxicity) at maximal neuroprotection [2] [%] | maximal level of neuroprotection [2] | neuroprotection [2] | toxicity induced by 25 μM AP [2] | NMDA-induced cell death [3] | cell death (% of NMDA toxicity) at maximal neuroprotection [3] [%] | maximal level of neuroprotection [3] | neuroprotection [3] | neuroprotective effect ([1]; (−)-huperzine A alone, 1-1000 nM, 100 μM NMDA for 10 minutes) | cell death (% of β-amyloid-peptide-induced toxicity) at maximal neuroprotection [2, 4] [%] | maximal level of neuroprotection [2, 4] | toxicity induced by 25 μM AP [2, 5] | cell death (% of NMDA toxicity) at maximal neuroprotection [3, 6] [%] | maximal level of neuroprotection [3, 6] | NMDA-induced cell death [3, 5]
1 | CN1CCCC1c1cccnc1 (single isomer, unassigned; (-)) [(−)-nicotine] | little effect | 45 | about 55% | about 20% | decreased in a dose-dependent manner | decreased in a dose-dependent manner | 45 | about 55% | about 40% | – | – | – | – | – | – | –
2 | C/C=C1\[C@H]2C=C(C)C[C@]1(N)c1ccc(=O)[nH]c1C2 [(−)-huperzine A] | – | – | – | – | – | – | – | – | – | no significant neuroprotective effects | 70 | about 30% | decreased in a dose-dependent manner | 55 | about 45% | decreased in a dose-dependent manner
